Measured values: patent publication US10363239B2, “Method for inhibiting growth of cancer cells” (Pain Therapeutics, Inc., priority 2013, dated 2019)
Like-named read-outs stand apart in the source and are kept apart here.

Key:
[1] = target: FLNA pentapeptide of SEQ ID NO: 1 (Bn-VAKGL) (Homo sapiens, UniProt P21333); experiment: FITC-NLX-based FLNA screening assay (inhibition of FITC-naloxone binding to Bn-VAKGL on streptavidin plates); conditions: 10 nM FITC-NLX
[2] = test system: mu opiate receptor (MOR); experiment: MOR agonist activity using [35S]GTPγS binding assay in striatal membranes; assay type: biochemical; conditions: for MOR agonist activity ([35S]GTPγS binding), FLNA-Binding Compound as Agonist 1 μM + BFNA: 1 μM compound + 1 μM β-funaltrexamine
How it was run: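 Striatal membranes (200 μg) were preincubated 5 min at 30 °C in HEPES pH 7.5 with 100 mM NaCl, 1 mM MgCl2 and 0.5 nM [35S]GTPγS, then 5 min more with 0.1–10 μM compound. Gαo was immunoprecipitated and bound radioactivity counted by scintillation.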

[3] = read-out: Percent Binding Inhibition, FLNA-binding compound 0.01 μM
[4] = read-out: Percent Binding Inhibition, FLNA-binding compound 0.1 μM
[5] = read-out: Percent Binding Inhibition, FLNA-binding compound 1 μM
[6] = Series C-1, 0.1 μM compound, relative to DAMGO
[7] = Series C-1, 0.1 μM compound, [35S]GTPγS binding to Gαo, striatal membranes
[8] = Series C-1, 1 μM compound + 1 μM β-FNA
[9] = Series C-1, 1 μM compound + β-FNA, relative to DAMGO + BFNA
[10] = Series C-1, 1 μM compound, relative to DAMGO
[11] = Series C-1, 1 μM compound, [35S]GTPγS binding to Gαo, striatal membranes
[12] = Series C-2, 0.1 μM compound, relative to DAMGO
[13] = Series C-2, 0.1 μM compound, [35S]GTPγS binding to Gαo, striatal membranes
[14] = Series C-2, 1 μM compound + 1 μM β-FNA
[15] = Series C-2, 1 μM compound + β-FNA, relative to DAMGO + BFNA
[16] = Series C-2, 1 μM compound, relative to DAMGO
[17] = Series C-2, 1 μM compound, [35S]GTPγS binding to Gαo, striatal membranes
[18] = 0.1 μM compound relative to DAMGO
[19] = 1 μM compound + BFNA relative to DAMGO + BFNA
[20] = 1 μM compound relative to DAMGO
[21] = FLNA-binding compound 0.01 μM, read-out: Percent Binding Inhibition
[22] = FLNA-binding compound 0.1 μM, read-out: Percent Binding Inhibition
[23] = FLNA-binding compound 1 μM, read-out: Percent Binding Inhibition

O=S(=O)(c1cccc2cccnc12)N1CCC2(CC1)OCCN2S(=O)(=O)c1cccc2cccnc12 [Compound C0143M]
inhibition at 0.01 µM [1, 3]: 45.3%
inhibition at 0.1 µM [1, 4]: 48.4%
inhibition at 1 µM [1, 5]: 57.8%
% DAMGO (0.1 μM) [2, 6]: 47.1%
Concentration of FLNA-Binding Compound as Agonist 0.1 μM [2, 7]: 81.0%
Concentration of FLNA-Binding Compound as Agonist 1 μM + BFNA [2, 8]: 86.5%
% DAMGO + BFNA [2, 9]: 94.7%
% DAMGO (1 μM) [2, 10]: 59.3%
Concentration of FLNA-Binding Compound as Agonist 1 μM [2, 11]: 193.3%
% DAMGO (0.1 μM) [2, 12]: 47.1%
Concentration of FLNA-Binding Compound as Agonist 0.1 μM [2, 13]: 81.0%
Concentration of FLNA-Binding Compound as Agonist 1 μM + BFNA [2, 14]: 86.5%
% DAMGO + BFNA [2, 15]: 94.7%
% DAMGO (1 μM) [2, 16]: 59.3%
Concentration of FLNA-Binding Compound as Agonist 1 μM [2, 17]: 193.3%

CC1CCC(C(C)C)C(OCC(O)CN2CCCc3ccccc32)C1 (stereo not drawn) [Compound A0068]
inhibition at 0.01 µM [1, 3]: 51.9%
inhibition at 0.1 µM [1, 4]: 54.2%
inhibition at 1 µM [1, 5]: 58.3%
MOR agonist activity ([35S]GTPγS binding), FLNA-Binding Compound as Agonist 0.1 μM ([2]; 0.1 μM compound): 73.9%
% DAMGO (0.1 μM) [2, 18]: 36.8%
MOR agonist activity ([35S]GTPγS binding), FLNA-Binding Compound as Agonist 1 μM ([2]; 1 μM compound): 110.4%
MOR agonist activity ([35S]GTPγS binding), FLNA-Binding Compound as Agonist 1 μM + BFNA [2]: 98.1%
% DAMGO + BFNA [2, 19]: 182.0%
% DAMGO (1 μM) [2, 20]: 35.2%

O=S(=O)(c1ccc(Br)cc1)N1CCC2(CC1)OCCN2S(=O)(=O)c1ccc(Br)cc1 [Compound C0025]
inhibition at 0.01 µM [1, 3]: 37.2%
inhibition at 0.1 µM [1, 4]: 41.4%
inhibition at 1 µM [1, 5]: 45.1%
% DAMGO (0.1 μM) [2, 6]: 122.6%
Concentration of FLNA-Binding Compound as Agonist 0.1 μM [2, 7]: 235.7%
Concentration of FLNA-Binding Compound as Agonist 1 μM + BFNA [2, 8]: 80.2%
% DAMGO + BFNA [2, 9]: 182.7%
% DAMGO (1 μM) [2, 10]: 117.5%
Concentration of FLNA-Binding Compound as Agonist 1 μM [2, 11]: 320.7%

CC1CCC(C(C)C)C(OCC(O)CN2CCOCC2)C1 (stereo not drawn) [Compound A0004]
inhibition at 0.01 µM [1, 21]: 40%
inhibition at 0.1 µM [1, 22]: 43.7%
inhibition at 1 µM [1, 23]: 47.6%
MOR agonist activity ([35S]GTPγS binding), FLNA-Binding Compound as Agonist 0.1 μM ([2]; 0.1 μM compound): 97.4%
% DAMGO (0.1 μM) [2, 18]: 55.2%
MOR agonist activity ([35S]GTPγS binding), FLNA-Binding Compound as Agonist 1 μM ([2]; 1 μM compound): 144.2%
MOR agonist activity ([35S]GTPγS binding), FLNA-Binding Compound as Agonist 1 μM + BFNA [2]: 86.0%
% DAMGO + BFNA [2, 19]: 130.9%
% DAMGO (1 μM) [2, 20]: 55.6%

CC(=O)c1ccc(S(=O)(=O)N2CCC3(CC2)OCC(CCCCN(C)C)N3S(=O)(=O)c2ccc(C(C)=O)cc2)cc1 (stereo not drawn) [Compound C0080]
inhibition at 0.01 µM [1, 21]: 46.8%
inhibition at 0.1 µM [1, 22]: 53.3%
inhibition at 1 µM [1, 23]: 54.6%
% DAMGO (0.1 μM) [2, 6]: 112.1%
Concentration of FLNA-Binding Compound as Agonist 0.1 μM [2, 7]: 187.9%
Concentration of FLNA-Binding Compound as Agonist 1 μM + BFNA [2, 8]: 167.1%
% DAMGO + BFNA [2, 9]: 351.8%
% DAMGO (1 μM) [2, 10]: 92.4%
Concentration of FLNA-Binding Compound as Agonist 1 μM [2, 11]: 205.4%

COc1c2c(cc3c1C(CC(=O)CCc1ccc(F)cc1)[N+](C)(C)CC3)OCO2 (stereo not drawn) [Compound B0018]
inhibition at 0.01 µM [1, 3]: 37.2%
inhibition at 0.1 µM [1, 4]: 43.7%
inhibition at 1 µM [1, 5]: 47.6%
% DAMGO (0.1 μM) ([2]; Series B, 0.1 μM compound, relative to DAMGO): 70.3%
MOR agonist activity, percent [35S]GTPγS binding at the stated compound concentration ([2]; Series B, 0.1 μM compound, [35S]GTPγS binding to Gαo, striatal membranes): 118.8%
MOR agonist activity, percent [35S]GTPγS binding at the stated compound concentration ([2]; Series B, 1 μM compound + 1 μM β-FNA): 45.6%
% DAMGO + BFNA ([2]; Series B, 1 μM compound + β-FNA, relative to DAMGO + BFNA): 69.1%
% DAMGO (1 μM) ([2]; Series B, 1 μM compound, relative to DAMGO): 53.5%
MOR agonist activity, percent [35S]GTPγS binding at the stated compound concentration ([2]; Series B, 1 μM compound, [35S]GTPγS binding to Gαo, striatal membranes): 143.0%

COc1ccc(S(=O)(=O)N2CCOC23CCN(CC2CC2)CC3)cc1 [Compound C0090M]
inhibition at 0.01 µM [1, 3]: 42.5%
inhibition at 0.1 µM [1, 4]: 52.5%
inhibition at 1 µM [1, 5]: 55.8%
% DAMGO (0.1 μM) [2, 12]: 137.7%
MOR agonist activity, percent [35S]GTPγS binding at the stated compound concentration [2, 13]: 237.0%
MOR agonist activity, percent [35S]GTPγS binding at the stated compound concentration [2, 14]: 41.0%
% DAMGO + BFNA [2, 15]: 118.8%
% DAMGO (1 μM) [2, 16]: 155.2%
MOR agonist activity, percent [35S]GTPγS binding at the stated compound concentration [2, 17]: 341.0%

OC(COc1cccc(C(F)(F)F)c1)CN1CCc2ccccc2C1 (stereo not drawn) [Compound A0054]
inhibition at 0.01 µM [1, 21]: 28.7%
inhibition at 0.1 µM [1, 22]: 35.8%
inhibition at 1 µM [1, 23]: 41.4%
MOR agonist activity ([35S]GTPγS binding), FLNA-Binding Compound as Agonist 0.1 μM ([2]; 0.1 μM compound): 74.9%
% DAMGO (0.1 μM) [2, 18]: 44.4%
MOR agonist activity ([35S]GTPγS binding), FLNA-Binding Compound as Agonist 1 μM ([2]; 1 μM compound): 159.2%
MOR agonist activity ([35S]GTPγS binding), FLNA-Binding Compound as Agonist 1 μM + BFNA [2]: 114.1%
% DAMGO + BFNA [2, 19]: 348.9%
% DAMGO (1 μM) [2, 20]: 63.9%
